Test results taken from US20040029965A1, “Formulations for reducing or eliminating toxicity of enviromental hormones containing ursodeoxycholic acid” (priority 2000, published 2004).
Marks after values point to notes of the source that are not given here.

Columns and labels:
C57B1/6J mice [1] = experiment: Hematological changes in mice by a single subcutaneous injection of TCDD; type: in vivo; set-up: NEU / LYM / PLT: unit not given here
Method: (§1) Male C57B1/6J mice of 5 weeks old having the average weight of 18-22 g which had been bred in CRJ (Charles River in Japan) were purchased and used in this example as experimental animals. Those mice were acclimated under the constant breeding condition, i.e. the temperature of 24±1° C., the humidity of 60±10% and the light and darkness cycle of 12 hours, for one week and thereafter, utilized in the experiment.
(§2) 2,3,7,8-tetrachlorodibenzo-p-dioxin (TCDD) dissolved in toluene (purity of 95% or more as a result of gas chromatography analysis), manufactured by Chem. Services Inc. in USA, was volatilized with nitrogen to obtain powder. The obtained powder was dissolved in a mixed solvent containing acetone and corn oil with a volume ratio of 1:6. The resulting solution each containing 110, 27.5 and 6.9 μg/kg of TCDD was subcutaneously injected to mice at a volume of 5 ml per body weight. […] The mice were supplied with the feed from 10 days before (pre-administration) to 60 days after administration of TCDD (post-administration).
Upon completion of the experiment for 60 days, the experimental animals were fasted for 24 hours and anesthetized with ether. Then, they were abdominally incised and blood was gathered from abdominal vena cava. They were sacrificed by the release of blood. Liver, kidneys, testes and epididymides were extracted and all the extracted organs were weighed. Only the testes were separately kept and observed under optical and electron microscopes. For biochemical finding test, serum was separated from blood with a centrifuge and the separated serum was analyzed with an automated blood biochemical analyzer, Dimension (Dupont, USA). Blood was put to another blood gathering bottle and then, analyzed with an automated blood cell analyzer, Celldyn (Abbott, USA).
(§3) The results are expressed as Mean±Standard Deviation values. For statistical analysis of the body weight, feed and water uptake, biochemical findings, hematological findings and the weight of organ in an acute toxicity test, verification was performed by one way analysis of variance (ANOVA) in case of equal distribution. In case significance was recognized in ANOVA, the Student's t-test was performed in the levels of p<0.05 and p<0.01.
For hematological findings, white blood cell (WBC), neutrophil (NEU), lymphocyte (LYM), monocyte (MONO), eosinophil (EOS), basophil (BASO) and red blood cell (RBC) counts, and hemoglobin concentration (HGB), hematocrit (HCT), mean cell volume (MCV), mean corpuscular hemoglobin (MCH), mean corpuscular hemoglobin concentration (MCHC), red blood cell distribution width (RDW) and platelet count (PLT) were measured and the results are as follows.

C57B1/6J mice [2] = experiment: Feed uptake of mice after a single subcutaneous injection of TCDD; type: in vivo; set-up: unit not given here
Method: as §1
The Experimental animals were supplied with Purina powdered feed (purchased from Hae Eun Trade) and supplied with water ad libitum. All the animals were weighed twice a week during experimentation.
as §2, §3

[3] = TCDD 27.5 μg/kg + UDCA 0.25 wt %
[4] = TCDD 27.5 μg/kg + UDCA 0.5 wt %

Q: Which results are given for `C[C@H](CCC(=O)O)[C@H]1CC[C@H]2[C@@H]3[C@@H](O)C[C@@H]4C[C@H](O)CC[C@]4(C)[C@H]3CC[C@]12C` [UDCA, 3α, 7β-dihydroxy-5β-cholanoic acid]?
A: RBC (C57B1/6J mice [1]; [3]): 9.48 ± 0.29 10^6; RDW (C57B1/6J mice [1]; [3]): 19.99 ± 1.08%; WBC (C57B1/6J mice [1]; [3]): 3.78 ± 1.19 10^3; BASO (C57B1/6J mice [1]; [4]): 0.14 ± 0.07 10^3; EOS (C57B1/6J mice [1]; [4]): 0.005 ± 0.003 10^3; HCT (C57B1/6J mice [1]; [4]): 44.49 ± 1.63 %; HGB (C57B1/6J mice [1]; [4]): 14.80 ± 0.78 g/dL; LYM (C57B1/6J mice [1]; [4]): 3.04 ± 0.77## 10^3; MCH (C57B1/6J mice [1]; [4]): 15.46 ± 0.59 pg; MCHC (C57B1/6J mice [1]; [4]): 33.23 ± 1.04 g/dL; MCV (C57B1/6J mice [1]; [4]): 46.46 ± 0.86 fL; MONO (C57B1/6J mice [1]; [4]): 0.05 ± 0.04 10^3; NEU (C57B1/6J mice [1]; [4]): 0.59 ± 0.23## 10^3; PLT (C57B1/6J mice [1]; [4]): 1068.14 ± 84.28## 10^3; RBC (C57B1/6J mice [1]; [4]): 9.57 ± 0.25 10^6; RDW (C57B1/6J mice [1]; [4]): 20.44 ± 0.82%; WBC (C57B1/6J mice [1]; [4]): 3.71 ± 0.99 10^3; feed uptake (C57B1/6J mice [2]; TCDD 6.9 μg/kg + UDCA 0.125 wt %, 10 days): 4.64 ± 0.73; feed uptake (C57B1/6J mice [2]; TCDD 6.9 μg/kg + UDCA 0.125 wt %, 20 days): 4.55 ± 0.44; feed uptake (C57B1/6J mice [2]; TCDD 6.9 μg/kg + UDCA 0.125 wt %, 30 days): 3.83 ± 0.36; feed uptake (C57B1/6J mice [2]; TCDD 6.9 μg/kg + UDCA 0.125 wt %, 40 days): 3.83 ± 0.36; feed uptake (C57B1/6J mice [2]; TCDD 6.9 μg/kg + UDCA 0.125 wt %, 50 days): 3.19 ± 0.13; feed uptake (C57B1/6J mice [2]; TCDD 6.9 μg/kg + UDCA 0.125 wt %, 60 days): 2.59 ± 0.23; feed uptake (C57B1/6J mice [2]; TCDD 6.9 μg/kg + UDCA 0.25 wt %, 10 days): 4.39 ± 0.79; feed uptake (C57B1/6J mice [2]; TCDD 6.9 μg/kg + UDCA 0.25 wt %, 20 days): 4.86 ± 0.90; feed uptake (C57B1/6J mice [2]; TCDD 6.9 μg/kg + UDCA 0.25 wt %, 30 days): 3.78 ± 0.57; feed uptake (C57B1/6J mice [2]; TCDD 6.9 μg/kg + UDCA 0.25 wt %, 40 days): 3.78 ± 0.57; feed uptake (C57B1/6J mice [2]; TCDD 6.9 μg/kg + UDCA 0.25 wt %, 50 days): 3.18 ± 0.56; feed uptake (C57B1/6J mice [2]; TCDD 6.9 μg/kg + UDCA 0.25 wt %, 60 days): 2.90 ± 0.30; feed uptake (C57B1/6J mice [2]; TCDD 6.9 μg/kg + UDCA 0.5 wt %, 10 days): 4.48 ± 0.67; feed uptake (C57B1/6J mice [2]; TCDD 6.9 μg/kg + UDCA 0.5 wt %, 20 days): 4.00 ± 1.11; feed uptake (C57B1/6J mice [2]; TCDD 6.9 μg/kg + UDCA 0.5 wt %, 30 days): 4.66 ± 0.67; feed uptake (C57B1/6J mice [2]; TCDD 6.9 μg/kg + UDCA 0.5 wt %, 40 days): 4.66 ± 0.67; feed uptake (C57B1/6J mice [2]; TCDD 6.9 μg/kg + UDCA 0.5 wt %, 50 days): 3.12 ± 0.40; feed uptake (C57B1/6J mice [2]; TCDD 6.9 μg/kg + UDCA 0.5 wt %, 60 days): 3.35 ± 1.56; feed uptake (C57B1/6J mice [2]; TCDD 27.5 μg/kg + UDCA 0.125 wt %, 10 days): 4.15 ± 0.64; feed uptake (C57B1/6J mice [2]; TCDD 27.5 μg/kg + UDCA 0.125 wt %, 20 days): 3.85 ± 0.43; feed uptake (C57B1/6J mice [2]; TCDD 27.5 μg/kg + UDCA 0.125 wt %, 30 days): 3.99 ± 0.34; feed uptake (C57B1/6J mice [2]; TCDD 27.5 μg/kg + UDCA 0.125 wt %, 40 days): 3.72 ± 0.21; feed uptake (C57B1/6J mice [2]; TCDD 27.5 μg/kg + UDCA 0.125 wt %, 50 days): 2.90 ± 0.98; feed uptake (C57B1/6J mice [2]; TCDD 27.5 μg/kg + UDCA 0.125 wt %, 60 days): 2.96 ± 0.29; feed uptake (C57B1/6J mice [2]; TCDD 27.5 μg/kg + UDCA 0.25 wt %, 10 days): 4.07 ± 0.40; feed uptake (C57B1/6J mice [2]; TCDD 27.5 μg/kg + UDCA 0.25 wt %, 20 days): 3.41 ± 0.71; feed uptake (C57B1/6J mice [2]; TCDD 27.5 μg/kg + UDCA 0.25 wt %, 30 days): 3.59 ± 0.38; feed uptake (C57B1/6J mice [2]; TCDD 27.5 μg/kg + UDCA 0.25 wt %, 40 days): 3.32 ± 0.39; feed uptake (C57B1/6J mice [2]; TCDD 27.5 μg/kg + UDCA 0.25 wt %, 50 days): 3.16 ± 0.24; feed uptake (C57B1/6J mice [2]; TCDD 27.5 μg/kg + UDCA 0.25 wt %, 60 days): 3.10 ± 0.77; feed uptake (C57B1/6J mice [2]; TCDD 27.5 μg/kg + UDCA 0.5 wt %, 10 days): 4.31 ± 1.49; feed uptake (C57B1/6J mice [2]; TCDD 27.5 μg/kg + UDCA 0.5 wt %, 20 days): 4.67 ± 1.13; feed uptake (C57B1/6J mice [2]; TCDD 27.5 μg/kg + UDCA 0.5 wt %, 30 days): 3.99 ± 0.36; feed uptake (C57B1/6J mice [2]; TCDD 27.5 μg/kg + UDCA 0.5 wt %, 40 days): 3.49 ± 0.57; feed uptake (C57B1/6J mice [2]; TCDD 27.5 μg/kg + UDCA 0.5 wt %, 50 days): 3.18 ± 0.55; feed uptake (C57B1/6J mice [2]; TCDD 27.5 μg/kg + UDCA 0.5 wt %, 60 days): 3.17 ± 0.49; feed uptake (C57B1/6J mice [2]; TCDD 110.0 μg/kg + UDCA 0.125 wt %, 10 days): 3.77 ± 0.43; feed uptake (C57B1/6J mice [2]; TCDD 110.0 μg/kg + UDCA 0.125 wt %, 20 days): 3.64 ± 1.16; feed uptake (C57B1/6J mice [2]; TCDD 110.0 μg/kg + UDCA 0.125 wt %, 30 days): 2.94 ± 0.64; feed uptake (C57B1/6J mice [2]; TCDD 110.0 μg/kg + UDCA 0.125 wt %, 40 days): 1.99 ± 0.58; feed uptake (C57B1/6J mice [2]; TCDD 110.0 μg/kg + UDCA 0.25 wt %, 10 days): 3.65 ± 0.33; feed uptake (C57B1/6J mice [2]; TCDD 110.0 μg/kg + UDCA 0.25 wt %, 20 days): 3.09 ± 0.44; feed uptake (C57B1/6J mice [2]; TCDD 110.0 μg/kg + UDCA 0.25 wt %, 30 days): 3.23 ± 0.55; feed uptake (C57B1/6J mice [2]; TCDD 110.0 μg/kg + UDCA 0.25 wt %, 40 days): 3.06 ± 1.89; feed uptake (C57B1/6J mice [2]; TCDD 110.0 μg/kg + UDCA 0.5 wt %, 10 days): 3.87 ± 0.57; feed uptake (C57B1/6J mice [2]; TCDD 110.0 μg/kg + UDCA 0.5 wt %, 20 days): 3.77 ± 0.62; feed uptake (C57B1/6J mice [2]; TCDD 110.0 μg/kg + UDCA 0.5 wt %, 30 days): 3.39 ± 0.24; feed uptake (C57B1/6J mice [2]; TCDD 110.0 μg/kg + UDCA 0.5 wt %, 40 days): 2.72 ± 0.72; feed uptake (C57B1/6J mice [2]; TCDD 110.0 μg/kg + UDCA 0.5 wt %, 50 days): 2.19 ± 0.22; feed uptake (C57B1/6J mice [2]; TCDD 110.0 μg/kg + UDCA 0.5 wt %, 60 days): 2.05 ± 0.62
